Measured values taken from ChEMBL document CHEMBL1147621, “The discovery of biaryl acids and amides exhibiting antibacterial activity against Gram-positive bacteria” (2004).
Values after ≈ are worked out from the molar mass of the structure shown. Values belong to the compound of their own block, whether it stands above or below them. Active and inactive are the calls of the source. The calls are words filed in the database; no cut-off is given here.

Columns and labels:
[1] = tested on: Enterococcus faecium; assay: Antibacterial activity against Enterococcus faecium F24910; format: functional
[2] = tested on: Enterococcus faecium; assay: Antibacterial activity against E. species. T66429; format: functional
[3] = tested on: Escherichia coli; assay: Antibacterial activity against Escherichia coli H28233; format: functional, organism-based
[4] = tested on: Streptococcus sp. 'group A'; assay: Antibacterial activity against Grp A Strep T32098; format: functional
[5] = tested on: Pseudomonas aeruginosa; assay: Antibacterial activity against Pseudomonas aeruginosa W30279; format: functional, organism-based
[6] = tested on: Pseudomonas aeruginosa; assay: Antibacterial activity against Pseudomonas aeruginosa W30298; format: functional, organism-based
[7] = tested on: Staphylococcus aureus; assay: Antibacterial activity of compound to inhibit the growth of Staphylococcus aureus 8325; format: functional
[8] = tested on: Staphylococcus aureus; assay: Antibacterial activity against Staphylococcus aureus W30078c; format: functional
[9] = tested on: Staphylococcus aureus; assay: Antibacterial activity against Staphylococcus aureus F2490; format: functional
[10] = tested on: Streptococcus sp. 'group A'; assay: Antibacterial activity against Grp A Strep S54408; format: functional
[11] = tested on: Staphylococcus aureus; assay: Antibacterial activity against Staphylococcus aureus 8325; format: functional
[12] = tested on: Bacteria; assay: Antibacterial activity of compound to inhibit the growth of Gram-positive bacteria; format: functional
[13] = tested on: Bacteria; assay: Antibacterial activity of compound to inhibit the growth of Gram-positive bacteria; Range is 8-12 ug/mL; format: functional
[14] = tested on: Bacteria; assay: Antibacterial activity of compound to inhibit the growth of Gram-positive bacteria; Range is 5-11 ug/mL; format: functional

MIC [1]: > 20 µg/mL
MIC [2]: 20 µg/mL (≈ 47.6 µM)
MIC [3]: inactive
MIC [4]: 20 µg/mL (≈ 47.6 µM)
MIC [5]: inactive
MIC [6]: inactive
MIC [8]: 20 µg/mL (≈ 47.6 µM)
MIC [9]: 20 µg/mL (≈ 47.6 µM)
MIC [10]: 10 µg/mL (≈ 23.8 µM)
MIC [11]: 20 µg/mL (≈ 47.6 µM)
Compound: O=C(N[C@@H](CC1CCCCC1)C(=O)O)c1ccc(Cl)c(-c2ccc(Cl)cc2)c1
IC90 [7]: 10 µg/mL (≈ 23.8 µM)

Compound: O=C(O)c1ccc(Cl)c(-c2ccc(Cl)cc2)c1
IC90 [12]: > 50 µg/mL

Compound: NC(=O)c1ccc(Cl)c(-c2ccc(Cl)cc2)c1
IC90 [12]: > 50 µg/mL

Compound: C[C@H](NC(=O)c1ccc(Cl)c(-c2ccc(Cl)cc2)c1)C(=O)O
IC90 [12]: > 50 µg/mL

Compound: NC(=O)c1ccc(Cl)c(-c2ccc(-c3ccccc3)cc2)c1
IC90 [12]: > 50 µg/mL

Compound: O=C(O)[C@@H]1CCCCN1C(=O)c1ccc(Cl)c(-c2ccc(-c3ccccc3)cc2)c1
IC90 [12]: 25 µg/mL (≈ 59.5 µM)

Compound: Cc1ccc(C(=O)N[C@@H](CC2CCCCC2)C(=O)O)cc1-c1ccc(-c2ccccc2)cc1
IC90 [7]: 3 µg/mL (≈ 6.79 µM)

Compound: NC(=O)[C@H](CC1CCCCC1)NC(=O)c1ccc(Cl)c(-c2ccc(Cl)cc2)c1
IC90 [13]: 12 µg/mL (≈ 28.6 µM)

Compound: O=C(N[C@@H](CC1CCCC1)C(=O)O)c1ccc(Cl)c(-c2ccc(Cl)cc2)c1
IC90 [12]: 18 µg/mL (≈ 44.3 µM)

Compound: O=C(N[C@@H](CC1CCNCC1)C(=O)O)c1ccc(Cl)c(-c2ccc(Cl)cc2)c1
IC90 [12]: > 50 µg/mL

Compound: COC(=O)[C@H](CC1CCCCC1)NC(=O)c1ccc(Cl)c(-c2ccc(Cl)cc2)c1
IC90 [12]: > 50 µg/mL

Compound: Cc1cc(C(=O)N[C@@H](CC2CCCCC2)C(=O)O)ccc1-c1ccc(-c2ccccc2)cc1
IC90 [7]: 2 µg/mL (≈ 4.53 µM)

Compound: O=C(N[C@H](CC1CCCCC1)C(=O)O)c1ccc(Cl)c(-c2ccc(Cl)cc2)c1
IC90 [14]: 11 µg/mL (≈ 26.2 µM)

MIC [1]: 20 µg/mL (≈ 46.8 µM)
MIC [2]: 20 µg/mL (≈ 46.8 µM)
MIC [3]: inactive
MIC [4]: 20 µg/mL (≈ 46.8 µM)
MIC [5]: inactive
MIC [6]: inactive
MIC [8]: 20 µg/mL (≈ 46.8 µM)
MIC [9]: 20 µg/mL (≈ 46.8 µM)
MIC [10]: 10 µg/mL (≈ 23.4 µM)
MIC [11]: 20 µg/mL (≈ 46.8 µM)
Compound: O=C(N[C@@H](CC1CCCCC1)C(=O)O)c1cccc(-c2ccc(-c3ccccc3)cc2)c1
IC90 [7]: 4 µg/mL (≈ 9.36 µM)

Compound: O=C(N[C@@H](Cc1ccccc1)C(=O)O)c1ccc(Cl)c(-c2ccc(Cl)cc2)c1
IC90 [12]: > 50 µg/mL

MIC [1]: 20 µg/mL (≈ 47.6 µM)
MIC [2]: 20 µg/mL (≈ 47.6 µM)
MIC [3]: inactive
MIC [4]: 20 µg/mL (≈ 47.6 µM)
MIC [5]: inactive
MIC [6]: inactive
MIC [8]: 20 µg/mL (≈ 47.6 µM)
MIC [9]: 15 µg/mL (≈ 35.7 µM)
MIC [10]: 10 µg/mL (≈ 23.8 µM)
MIC [11]: 15 µg/mL (≈ 35.7 µM)
Compound: O=C(N[C@@H](CC1CCCCC1)C(=O)O)c1ccc(Cl)c(-c2cccc(Cl)c2)c1
IC90 [7]: 8 µg/mL (≈ 19 µM)

Compound: O=C(NC(C(=O)O)c1ccccc1)c1ccc(Cl)c(-c2ccc(-c3ccccc3)cc2)c1 (configuration not stated)
IC90 [12]: 10 µg/mL (≈ 22.6 µM)
